The source of these data is patent US4066510A, “Assay for mutagenesis in diploid human lymphoblasts” (Massachusetts Institute of Technology, priority 1976, dated 1978).

The subject of series [1] is Mutant Type (HGPRT-) clones (6TG^R). Kind of series: cells. Particulars: Homo sapiens.
Procedure: Cell survival was measured by a soft-agar plating procedure that was originally devised for mouse myeloma cells and latter extended to human lymphoblasts. […] For plating efficiencies, confluent feeder layers were used of a fibroblast strain derived from a patient afflicted with the Lesch-Nyhan syndrome. […] The feeder layer was overlayed with a separation layer formed from 2.5 ml of RPMI 1640 medium containing 0.25% agarose (M.C.I. Biomedical), which was allowed to gel at room temperature (10 min). The cells were suspended in 2.5 ml of 0.25% agarose-RPMI 1640 layered over the separator layer; this layer was then allowed to gel before the plates were incubated at 37° in humidified air containing 5% CO2. On the following day, 1.0 ml of RPMI 1640 medium was placed on each plate, and another 1.0 ml was added 6 days later. Although microscopic colonies could be counted on day 7, 14 days were allowed in order to permit an increase in colony size to about 0.4 mm because this permitted the use of an automatic colony counter (Artek Systems). Cell counts in suspension were accomplished by counting samples on an electronic particle counter (Coulter Electronics).
HGPRT activity and plating efficiencies as a function of 6TG concentration for clones sensitive (6TG^S) or resistant (6TG^R) to 10 μg/ml of 6TG were determined.
Plating efficiencies were determined following the procedure of Example 1.
Series [2] deals with human lymphoblast line (MIT-2).
The next series is described as follows: in vitro. The following applies: human, mit-2 lymphoblasts.
Series [3] is described as follows: Stability of MNU solution (electronic absorption spectra). The following applies: PBS, pH 7.2, kept cold. In kind it is physicochemical. As to the method: Crystalline form methylnitrosourea (MNU) was dessicated and preweighed into aliquots. The quantitative electronic absorption spectra of one of these preweighed aliquots dissolved in phosphate buffered saline (PBS), pH7.2, was determined and found to remain stable for more than 60 minutes when kept cold. Fresh solutions were prepared 10 minutes prior to dosing by dissolving preweighed aliquots in PBS and filter-sterilizing the solutions. They were then used immediately for dosing cultures and simultaneously characterized by electronic absorbance spectra.

In the next series the test system is 6TG^S and 6TG^R clones. As to the kind of experiment: Dose-dependent sensitivity to MNU of 6TG^R clones compared with wild-type (6TG^S).
The subject of the next series is HGPRT. The following applies: linear with time over 60 min, 5 × 10^6 cells/ml in the sonicate.

Read-outs that look alike come from different tables or passages of the source.

Take `Nc1nc2nc[nH]c2c(=S)[nH]1` [6TG, 6-thioguanine]: the viability at 5 µg/mL was determined as 81% in series [1] (P1(0.5), read-out: RELATIVE SURVIVING FRACTION, clone P10, 5 μg/ml 6TG); 94% in series [1] (read-out: RELATIVE SURVIVING FRACTION, clone B2, 5 μg/ml 6TG); 160% in series [1] (read-out: RELATIVE SURVIVING FRACTION, clone B4, 5 μg/ml 6TG); 110% in series [1] (read-out: RELATIVE SURVIVING FRACTION, clone B6, 5 μg/ml 6TG); 120% in series [1] (read-out: RELATIVE SURVIVING FRACTION, clone B7, 5 μg/ml 6TG); 100% in series [1] (read-out: RELATIVE SURVIVING FRACTION, clone B8, 5 μg/ml 6TG). For the same molecule, the viability at 5 µg/mL was 110% in series [1] (read-out: RELATIVE SURVIVING FRACTION, clone B9, 5 μg/ml 6TG); 86% in series [1] (read-out: RELATIVE SURVIVING FRACTION, clone B13, 5 μg/ml 6TG); 71% in series [1] (read-out: RELATIVE SURVIVING FRACTION, clone B15, 5 μg/ml 6TG); 110% in series [1] (read-out: RELATIVE SURVIVING FRACTION, clone B17, 5 μg/ml 6TG); 90% in series [1] (read-out: RELATIVE SURVIVING FRACTION, clone B20, 5 μg/ml 6TG); 112% in series [1] (read-out: RELATIVE SURVIVING FRACTION, clone P1, 5 μg/ml 6TG). Also, the viability at 5 µg/mL in series [1] (read-out: RELATIVE SURVIVING FRACTION, clone P2, 5 μg/ml 6TG) was determined as 173%; in series [1] (read-out: RELATIVE SURVIVING FRACTION, clone P6, 5 μg/ml 6TG) it was 103%; in series [1] (read-out: RELATIVE SURVIVING FRACTION, clone P7, 5 μg/ml 6TG), 80%; in series [1] (read-out: RELATIVE SURVIVING FRACTION, clone P9, 5 μg/ml 6TG), 86%; in series [1] (read-out: RELATIVE SURVIVING FRACTION, clone P11, 5 μg/ml 6TG) it was 100%; in series [1] (read-out: RELATIVE SURVIVING FRACTION, clone P15, 5 μg/ml 6TG), 87%. Besides, in series [1] (read-out: RELATIVE SURVIVING FRACTION, clone P18, 5 μg/ml 6TG), the viability at 5 µg/mL was determined as 55%. The viability at 10 µg/mL was 100% in series [1] (read-out: RELATIVE SURVIVING FRACTION, clone B2, 10 μg/ml 6TG); 150% in series [1] (read-out: RELATIVE SURVIVING FRACTION, clone B4, 10 μg/ml 6TG); 82% in series [1] (read-out: RELATIVE SURVIVING FRACTION, clone B6, 10 μg/ml 6TG); 66% in series [1] (read-out: RELATIVE SURVIVING FRACTION, clone B7, 10 μg/ml 6TG); 93% in series [1] (read-out: RELATIVE SURVIVING FRACTION, clone B8, 10 μg/ml 6TG); 120% in series [1] (read-out: RELATIVE SURVIVING FRACTION, clone B9, 10 μg/ml 6TG). For the same molecule, the viability at 10 µg/mL in series [1] (read-out: RELATIVE SURVIVING FRACTION, clone B13, 10 μg/ml 6TG) worked out at 100%; in series [1] (read-out: RELATIVE SURVIVING FRACTION, clone B15, 10 μg/ml 6TG) it was 87%; in series [1] (read-out: RELATIVE SURVIVING FRACTION, clone B17, 10 μg/ml 6TG), 140%; in series [1] (read-out: RELATIVE SURVIVING FRACTION, clone B20, 10 μg/ml 6TG) it was 83%; in series [1] (read-out: RELATIVE SURVIVING FRACTION, clone D3, 10 μg/ml 6TG) it was 71%; in series [1] (read-out: RELATIVE SURVIVING FRACTION, clone P1, 10 μg/ml 6TG) it was 75%. Further, the viability at 10 µg/mL in series [1] (read-out: RELATIVE SURVIVING FRACTION, clone P2, 10 μg/ml 6TG) is 121%; in series [1] (read-out: RELATIVE SURVIVING FRACTION, clone P6, 10 μg/ml 6TG), 97%; in series [1] (read-out: RELATIVE SURVIVING FRACTION, clone P7, 10 μg/ml 6TG), 60%; in series [1] (read-out: RELATIVE SURVIVING FRACTION, clone P9, 10 μg/ml 6TG), 45%; in series [1] (read-out: RELATIVE SURVIVING FRACTION, clone P10, 10 μg/ml 6TG), 41%; in series [1] (read-out: RELATIVE SURVIVING FRACTION, clone P11, 10 μg/ml 6TG) it was 55%. Besides, the viability at 10 µg/mL in series [1] (read-out: RELATIVE SURVIVING FRACTION, clone P15, 10 μg/ml 6TG) was 58%; in series [1] (read-out: RELATIVE SURVIVING FRACTION, clone P18, 10 μg/ml 6TG), 62%. The viability at 20 µg/mL is 71% in series [1] (read-out: RELATIVE SURVIVING FRACTION, clone B2, 20 μg/ml 6TG); 110% in series [1] (read-out: RELATIVE SURVIVING FRACTION, clone B4, 20 μg/ml 6TG); 76% in series [1] (read-out: RELATIVE SURVIVING FRACTION, clone B6, 20 μg/ml 6TG); 57% in series [1] (read-out: RELATIVE SURVIVING FRACTION, clone B7, 20 μg/ml 6TG); 80% in series [1] (read-out: RELATIVE SURVIVING FRACTION, clone B8, 20 μg/ml 6TG); 68% in series [1] (read-out: RELATIVE SURVIVING FRACTION, clone B9, 20 μg/ml 6TG). Besides, the viability at 20 µg/mL in series [1] (read-out: RELATIVE SURVIVING FRACTION, clone B13, 20 μg/ml 6TG) was 45%; in series [1] (read-out: RELATIVE SURVIVING FRACTION, clone B15, 20 μg/ml 6TG), 37%; in series [1] (read-out: RELATIVE SURVIVING FRACTION, clone B17, 20 μg/ml 6TG) it was 160%; in series [1] (read-out: RELATIVE SURVIVING FRACTION, clone B20, 20 μg/ml 6TG), 51%; in series [1] (read-out: RELATIVE SURVIVING FRACTION, clone D3, 20 μg/ml 6TG) it was 73%; in series [1] (read-out: RELATIVE SURVIVING FRACTION, clone P1, 20 μg/ml 6TG), 86%. The viability at 20 µg/mL was determined as 94% in series [1] (read-out: RELATIVE SURVIVING FRACTION, clone P2, 20 μg/ml 6TG); 67% in series [1] (read-out: RELATIVE SURVIVING FRACTION, clone P6, 20 μg/ml 6TG); 54% in series [1] (read-out: RELATIVE SURVIVING FRACTION, clone P7, 20 μg/ml 6TG); 22% in series [1] (read-out: RELATIVE SURVIVING FRACTION, clone P9, 20 μg/ml 6TG); 30% in series [1] (read-out: RELATIVE SURVIVING FRACTION, clone P10, 20 μg/ml 6TG); 24% in series [1] (read-out: RELATIVE SURVIVING FRACTION, clone P11, 20 μg/ml 6TG). Further, the viability at 20 µg/mL in series [1] (read-out: RELATIVE SURVIVING FRACTION, clone P15, 20 μg/ml 6TG) turned out to be 27%; in series [1] (read-out: RELATIVE SURVIVING FRACTION, clone P18, 20 μg/ml 6TG), 45%.

Turning to `CCOS(C)(=O)=O` [EMS, ethyl methane sulphonate], in series [2], the “EST. INITIAL GROWTH DELAY” value came to 0. Moreover, the viability at 24 h in “in vitro” stood at 0.12%.

Turning to `CN(N=O)C(N)=O` [MNU, methylnitrosourea], the “stability of electronic absorption spectrum in solution” value in series [3] is given as “more than 60 minutes”. In series [2], the “EST. INITIAL GROWTH DELAY” value stood at 0; the “absolute plating efficiency in the absence of 6TG, stable maximum” value is on record as “about 0.28 clones observed/particle plated”; the “population increase before the culture's apparent cessation of growth” value is on record as “about 2.25 times”. In addition, in “in vitro”, the viability at 24 h was 0.1%. Moreover, the “survival fraction of one 6TG^R clone” value in the series on 6TG^S and 6TG^R clones (1 6TG^R clone, relatively high concentration of MNU) is listed as “high survival fraction”. In addition, the “MNU toxicity, 6TG^S versus 6TG^R clones” value in the series on 6TG^S and 6TG^R clones (4 6TG^S and 4 6TG^R clones) is listed as “the average behavior of the two groups was virtually identical”.

As for `O=c1[nH]cnc2nc[nH]c12` [hypoxanthine], in the series on HGPRT, the phosphoribosylation velocity is recorded as 6.4 ± 0.4 mmoles of hypoxanthine/min.
